This is an account of results in PubChem BioAssay AID1648 (Sanford-Burnham Center for Chemical Genomics, 2009).

Each structure is given as a SMILES string. Calls of active or inactive are those of the source. How the calls were made is not given here.

This assay addresses Serine/threonine-protein kinase mTOR (Homo sapiens) (UniProt P42345). Nature of the assay: mTOR FRB domain ligand binding – biophysical, NMR (AID 1648). As to conditions: NMR binding to FRB domain, chemical shift.

Chain of Serine/threonine-protein kinase mTOR (Homo sapiens) (P42345 2015-2114): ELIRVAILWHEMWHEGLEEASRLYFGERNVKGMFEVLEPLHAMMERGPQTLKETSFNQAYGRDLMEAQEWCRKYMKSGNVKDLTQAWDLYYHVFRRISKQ

Regarding `CSc1ccccc1NC(=O)c1ccco1`, the Kd was > 4 mM (inactive).

Regarding `O=C1NC(=S)N/C1=C\c1cccnc1`, the Kd was > 4 mM (inactive).

On to `CCn1ncc(Cl)c1C(=O)Nc1ccncc1`, for which the Kd was > 4 mM (inactive).

In the case of `COc1c2c(c(CC=C(C)C)c3oc(=O)c(-c4ccc(O)cc4)c(O)c13)OC(C)(C)C=C2`, the Kd is > 4 mM (inactive).

`Nc1nc2n(c1C(=O)c1ccccc1)CCC2`: the Kd is > 4 mM (inactive).

On to `CC(=O)Nc1sccc1C(N)=O`, for which the Kd is > 4 mM (inactive).

For `COC(=O)CSc1nc(N)cc(=O)[nH]1`, the Kd is > 4 mM (inactive).

As to `NC(=O)C1CCCN1S(=O)(=O)c1ccc(F)cc1` (stereo unspecified), the Kd was > 4 mM (inactive).

For `CCCc1nc2ccccc2c2nc(N)nn12`, the Kd was > 4 mM (inactive).

As for `CC(=O)c1ccc(-n2ccnc2)cc1`, the Kd is > 4 mM (inactive).

Consider `Cc1cc(C)n(/N=C\c2cccs2)c(=O)c1C(N)=O`, for which the Kd was > 4 mM (inactive).

For the compound `NC(=O)c1ccsc1NC(=O)C1=COCCO1`, the Kd was > 4 mM (inactive).

Turning to `Cc1c(-c2ccc(F)cc2)[n+](=O)c2c(n1[O-])CCC2`, the Kd was > 4 mM (inactive).

In the case of `NCc1cn2ccccc2n1`, the Kd is > 4 mM (inactive).

On to `O=C(CN1CCOCC1)Nc1cccc(Br)c1`, for which the Kd was > 4 mM (inactive).

Consider `O=C(CSc1ccc(Cl)cc1)N1CCOCC1`, for which the Kd was > 4 mM (inactive).

For the compound `Cn1nc(-c2cccs2)cc1N`, the Kd is > 4 mM (inactive).

For the compound `COC(=O)c1c(C)cc(OC(=O)c2c(C)cc(O)c(C=O)c2O)c(C)c1O`, the Kd is > 4 mM (inactive).

Take `Cc1csc(SCC(=O)N2CCCC2)n1`: the Kd is > 4 mM (inactive).

As for `COc1ccc(-c2cc(=O)c3ccccc3o2)cc1`, the Kd is > 4 mM (inactive).

On to `Cc1cc(N2CCN(C)CC2)ncn1`, for which the Kd is > 4 mM (inactive).

`O=C(CN1C(=O)c2cccc3cccc(c23)C1=O)NO`: the Kd is > 4 mM (inactive).

For `NC(=O)CN1CC(c2ccccc2)CC1=O` (stereo unspecified), the Kd is > 4 mM (inactive).

As for `O=C(O)CCn1cncn1`, the Kd was > 4 mM (inactive).

With `O=C(O)c1ccc2c(c1)OCCO2`, the Kd was > 4 mM (inactive).

For the compound `CC(=O)Oc1ccc2c(c1C(C)C)CCC1C(C)(C)CCC[C@]21C` (stereo partly specified), the Kd is > 4 mM (inactive).

Consider `OC1COCc2nc3ccccc3n2C1` (stereo unspecified), for which the Kd is > 4 mM (inactive).

As to `CC(=O)NC(O)C(=O)c1ccccc1` (stereo unspecified), the Kd was > 4 mM (inactive).

In the case of `O=C(/C=C/C=C/c1ccc2c(c1)OCO2)N1CCCCC1`, the Kd is > 4 mM (inactive).

On to `O=C(O)CNCC(O)Cn1c2ccccc2c2ccccc21` (stereo unspecified), for which the Kd was > 4 mM (inactive).

Regarding `O=[N+]([O-])c1cccc(-c2c[n+](=O)c3c(n2[O-])CCC3)c1`, the Kd is > 4 mM (inactive).

`CC(C)C(=O)NC(=S)N1CCOCC1`: the Kd was > 4 mM (inactive).

With `COC(=O)c1sccc1S(=O)(=O)N1CCCC1`, the Kd was > 4 mM (inactive).

Take `COc1cc(C(C)=O)cc(OC)c1O`: the Kd was > 4 mM (inactive).

With `C=CCc1ccc(O)c(OC)c1`, the Kd was > 4 mM (inactive).

`Cc1nn(C)c2sc(C(=O)O)cc12`: the Kd is > 4 mM (inactive).

In the case of `Nc1cc(F)cc(F)c1`, the Kd was > 4 mM (inactive).

With `O=C1NC(=S)S/C1=C/c1ccncc1`, the Kd is > 4 mM (inactive).

In the case of `O=C(O)C1=C[C@@H](O)[C@@H](O)[C@H](O)C1`, the Kd was > 4 mM (inactive).

For the compound `CNC(=O)c1ccccc1-c1ccccc1`, the Kd was > 4 mM (inactive).

For `Cc1cc(C(=O)N2CCC3(CC2)OCCO3)cs1`, the Kd was > 4 mM (inactive).

`CC(=O)c1ccc2c(c1)OCCO2`: the Kd was > 4 mM (inactive).

Consider `CN(C)c1oc(-c2ccccc2Cl)nc1C#N`, for which the Kd was > 4 mM (inactive).

On to `Cc1ccc(CN2C3=NC(=O)CN3c3ccccc32)cc1`, for which the Kd is > 4 mM (inactive).

As to `Cc1ccc(N2C(=O)CC(=O)NC2=O)cc1`, the Kd was > 4 mM (inactive).

With `OCc1ccc2ncccc2c1`, the Kd was > 4 mM (inactive).

Take `CSc1ccc(S(=O)(=O)N2CCCC2)cc1`: the Kd is > 4 mM (inactive).

`CCOC(=O)CC1Sc2ccccc2NC1=O` (stereo unspecified): the Kd is > 4 mM (inactive).

On to `CC1CC[C@]2(NC1)O[C@H]1CC3C4CC[C@H]5C[C@@H](O)CC[C@]5(C)C4CC[C@]3(C)[C@H]1[C@@H]2C` (stereo partly specified), for which the Kd was > 4 mM (inactive).

Regarding `CNC(=S)N1CCN(C(=O)c2ccco2)CC1`, the Kd is > 4 mM (inactive).

As for `Cc1cc(C)c(NC(=O)CN2CCC(O)CC2)c(C)c1`, the Kd was > 4 mM (inactive).

With `O=C(Oc1ccc2c(c1)OCC2=O)c1ccccc1`, the Kd was > 4 mM (inactive).

Take `NC(=O)c1cccnc1Oc1ccccc1`: the Kd is > 4 mM (inactive).

`O=c1cnnc(Nc2ccc(O)cc2)[nH]1`: the Kd is > 4 mM (inactive).

As for `CC(=O)Oc1cc2c(c(C)c1OC(C)=O)CC=C1[C@@]2(C)CC[C@@]2(C)C3C[C@](C)(C(=O)O)CC[C@]3(C)CC[C@]12C` (stereo partly specified), the Kd was > 4 mM (inactive).

With `COc1cc2c(cc1O)CC1c3c(cc(O)c(OC)c3-2)CCN1C` (stereo unspecified), the Kd was > 4 mM (inactive).

On to `COc1ccc(C(=O)NC2=NCCS2)cc1OC`, for which the Kd was > 4 mM (inactive).

In the case of `COCC(=O)Nc1cc2c3c(c1)CCN3C(=O)CC2`, the Kd was > 4 mM (inactive).

For the compound `Cc1ccn(S(=O)(=O)c2ccc(F)cc2)n1`, the Kd is > 4 mM (inactive).

With `CC(=O)O[C@H]1C[C@@H](OC(C)=O)C(C)(C)C2C[C@@H](OC(C)=O)[C@]3(C)C(CC[C@@]4(C)[C@H](c5ccoc5)C(=O)[C@H]5O[C@]543)[C@]21C` (stereo partly specified), the Kd was > 4 mM (inactive).

Regarding `NC(=O)CC[C@H](N)C(=O)O`, the Kd was > 4 mM (inactive).

As to `CNC(=O)c1cc(C)c(-c2ccccc2)s1`, the Kd is > 4 mM (inactive).

`CC(=O)Nc1ccc(-c2cn3ccsc3n2)cc1`: the Kd was > 4 mM (inactive).

`O=C(NN1CCOCC1)c1cccs1`: the Kd is > 4 mM (inactive).

Take `O=C1c2ccccc2C(=O)N1/N=C/c1ccc[nH]1`: the Kd was > 4 mM (inactive).

On to `Cc1nnc(N2CCN(c3ccccc3)CC2)[nH]c1=O`, for which the Kd is > 4 mM (inactive).

As for `O=C(c1ccccc1)c1ccc(N2CCNCC2)cc1`, the Kd was > 4 mM (inactive).

Consider `COc1ccc(-c2ccc(SCC(N)=O)nn2)cc1`, for which the Kd is > 4 mM (inactive).

On to `Cc1nc(-c2cc(CO)no2)cs1`, for which the Kd is > 4 mM (inactive).

Turning to `COc1ccc2c3c1O[C@H]1C[C@@H](O)C=C[C@@]31CCN(C)C2`, the Kd was > 4 mM (inactive).

In the case of `Cc1cc(=O)[nH]c(NCc2cccnc2)n1`, the Kd is > 4 mM (inactive).

Turning to `Cc1ccc2cc(N)ccc2n1`, the Kd was > 4 mM (inactive).

Take `N#Cc1nc(N2CCCCC2)nc(N2CCOCC2)n1`: the Kd is > 4 mM (inactive).

For the compound `Cc1nn(CC(=O)Nc2ccccc2)c(=O)c2ccccc12`, the Kd was > 4 mM (inactive).

On to `O=C1CCC(=O)N1CNc1ccccc1`, for which the Kd is > 4 mM (inactive).

`O=C(O)CN(CCCc1ccccc1)CC(=O)O`: the Kd is > 4 mM (inactive).

`O=C(c1ccccc1)N1CCNCC1`: the Kd was > 4 mM (inactive).

Turning to `O=C1CCCc2c1nc(-c1ccccc1)n2O`, the Kd was > 4 mM (inactive).

Take `CCOC(=O)C1=C(C)N2CCN=C2S1`: the Kd was > 4 mM (inactive).

For `Cn1c2ccccc2n2c(=S)[nH]nc12`, the Kd was > 4 mM (inactive).

Turning to `CCOC(=O)c1c(C)[nH]c2ccc(O)cc12`, the Kd is > 4 mM (inactive).

For the compound `OCc1nc2ccccc2s1`, the Kd was > 4 mM (inactive).

Turning to `COc1ccc(C2=CC(=O)C=CC2=O)cc1`, the Kd is > 4 mM (inactive).

With `O=C(O)CC1Sc2ccccc2NC1=O` (stereo unspecified), the Kd was > 4 mM (inactive).

Take `Cc1ccc(C)n1/N=C1\NC(=O)CS1`: the Kd is > 4 mM (inactive).

As for `COc1ccc(C(=O)CC(=O)O)c2c1C=CC(C)(C)O2`, the Kd is > 4 mM (inactive).

As for `CNC(=O)C1=NCCCc2cc(OC)c(OC)cc21`, the Kd was > 4 mM (inactive).

For `NN1C(=O)/C(=C/c2ccc(O)c(O)c2)SC1=S`, the Kd was > 4 mM (inactive).

Consider `NC(=O)c1cccc(N2C(=O)C=CC2=O)c1`, for which the Kd was > 4 mM (inactive).

Consider `CN(C)C(=O)N1CCN(C(=O)c2ccco2)CC1`, for which the Kd is > 4 mM (inactive).

Take `Cc1occc1C(=O)Nc1nnc(-c2ccncc2)s1`: the Kd was > 4 mM (inactive).

On to `N=C1/C(=C\c2ccco2)C(=O)N=C2SC=NN12`, for which the Kd is > 4 mM (inactive).

For the compound `c1cncc(Cn2cccc2)c1`, the Kd is > 4 mM (inactive).

Take `CC(=O)Nc1nnc(-c2ccccc2S(C)(=O)=O)o1`: the Kd was > 4 mM (inactive).

For `O=C(O)C1NCCc2ccccc21` (stereo unspecified), the Kd is > 4 mM (inactive).

Regarding `CCc1noc(C)c1C(=O)N1CCCC1`, the Kd is > 4 mM (inactive).

With `O=C(O)C1Cc2ccccc2O1` (stereo unspecified), the Kd was > 4 mM (inactive).

As to `COc1cccc(-c2csc(NC(C)=O)n2)c1`, the Kd was > 4 mM (inactive).

In the case of `COC(=O)[C@@H]1C(O)CC[C@H]2CN3CCc4c([nH]c5ccccc45)[C@@H]3C[C@@H]21` (stereo partly specified), the Kd is > 4 mM (inactive).

Regarding `COc1ccc(C(=O)O)cc1OC`, the Kd was > 4 mM (inactive).

On to `CNCc1ccccc1`, for which the Kd is > 4 mM (inactive).

With `COc1cccc2c1CCC1=CC(=O)CC[C@@]12C`, the Kd is > 4 mM (inactive).

For the compound `O=C(CSc1ncccn1)Nc1nccs1`, the Kd was > 4 mM (inactive).

As to `NC(=O)C1CCN(C(=O)c2ccccc2F)CC1`, the Kd is > 4 mM (inactive).

Regarding `Cc1nc(NC(=O)c2cccnc2)ccc1Br`, the Kd was > 4 mM (inactive).

With `COCc1cc(=O)oc2cc(O)c(Cl)cc12`, the Kd is > 4 mM (inactive).
